From ChEMBL document CHEMBL2331291, “Targeting CCR2 Receptor To Treat Inflammation Diseases and Disorders” (ACS Med Chem Lett, 2013)

Key:
[1] = biological target: C-C chemokine receptor type 5 (Homo sapiens, UniProt P51681); experiment: Displacement of [125I]RANTES from human CCR5 expressed in CHO cell membranes coexpressing Gal6 after 6 hrs by scintillation counting analysis
[2] = biological target: C-C chemokine receptor type 2 (Homo sapiens, UniProt P41597); experiment: Displacement of [125I]MCP1 from CCR2 in human THP1 cell membranes after 8 hrs by scintillation counting analysis; set-up: species or system THP-1
Sequence of C-C chemokine receptor type 2 (P41597 whole entry): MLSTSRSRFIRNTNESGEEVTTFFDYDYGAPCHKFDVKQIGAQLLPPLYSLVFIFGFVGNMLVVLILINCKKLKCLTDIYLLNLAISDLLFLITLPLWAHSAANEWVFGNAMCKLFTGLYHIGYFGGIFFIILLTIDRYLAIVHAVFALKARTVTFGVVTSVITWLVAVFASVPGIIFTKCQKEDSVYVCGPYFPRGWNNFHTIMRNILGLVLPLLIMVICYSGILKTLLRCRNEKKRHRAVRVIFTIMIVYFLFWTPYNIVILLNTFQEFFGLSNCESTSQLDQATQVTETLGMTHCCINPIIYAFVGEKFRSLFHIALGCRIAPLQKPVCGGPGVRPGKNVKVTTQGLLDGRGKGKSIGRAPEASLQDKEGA

Sequence of C-C chemokine receptor type 5 (P51681 whole entry): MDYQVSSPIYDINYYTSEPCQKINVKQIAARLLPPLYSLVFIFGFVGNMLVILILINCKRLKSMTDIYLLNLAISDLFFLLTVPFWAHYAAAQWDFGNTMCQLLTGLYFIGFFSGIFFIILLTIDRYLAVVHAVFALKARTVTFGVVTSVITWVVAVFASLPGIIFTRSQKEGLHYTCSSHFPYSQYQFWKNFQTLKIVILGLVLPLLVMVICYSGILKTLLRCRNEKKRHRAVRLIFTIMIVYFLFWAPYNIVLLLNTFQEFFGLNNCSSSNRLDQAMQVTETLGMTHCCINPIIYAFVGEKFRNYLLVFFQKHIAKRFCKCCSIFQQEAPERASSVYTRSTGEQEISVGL

Ki [1]: 150 nM
Ki [2]: 2 nM
SMILES: CO[C@@H]1COCC[C@@H]1NC1CCN(C(=O)c2nc(C(F)(F)F)nc(N3CCc4cc(C(F)(F)F)ccc4C3)c2C)CC1
